ChEMBL document CHEMBL1201862, “PubChem BioAssay data set” (2004)
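48-hour exposure; five concentrations; linearly interpolated endpoints. GI50: concentration for 50% inhibition of growth.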 Calls of active or inactive are those of the source. No stated cut-off is given here; in the data, active = GI50 up to about 1.1 µM and inactive = higher.

Tests used:
Test in all cases: NCI tumour cell line growth inhibition, 48 h
[1] = system: 786-0
[2] = system: A498
[3] = system: A549
[4] = system: ACHN
[5] = system: BT-549
[6] = system: CAKI-1
[7] = system: CCRF-CEM
[8] = system: COLO 205
[9] = system: DU-145
[10] = system: EKVX
[11] = system: HCC 2998
[12] = system: HCT-116
[13] = system: HCT-15
[14] = system: HOP-92
[15] = system: HT-29
[16] = system: Hs-578T
[17] = system: IGROV-1
[18] = system: K562
[19] = system: KM12
[20] = system: LOX IMVI
[21] = system: M14
[22] = system: MCF7
[23] = system: MDA-MB-231
[24] = system: MDA-MB-435
[25] = system: MDA-N
[26] = system: MOLT-4
[27] = system: Malme-3M
[28] = system: NCI-H226
[29] = system: NCI-H23
[30] = system: NCI-H460
[31] = system: NCI/ADR-RES
[32] = system: OVCAR-3
[33] = system: OVCAR-5
[34] = system: OVCAR-8
[35] = system: PC-3
[36] = system: RXF 393
[37] = system: SF-268
[38] = system: SF-295
[39] = system: SF-539
[40] = system: SK-MEL-28
[41] = system: SK-MEL-2
[42] = system: SK-MEL-5
[43] = system: SK-OV-3
[44] = system: SN12C
[45] = system: SNB-19
[46] = system: SNB-75
[47] = system: SW-620
[48] = system: T47D
[49] = system: TK-10
[50] = system: U-251
[51] = system: UACC-257
[52] = system: UACC-62
[53] = system: UO-31
[54] = system: HL-60
[55] = system: HOP-62
[56] = system: NCI-H522
[57] = system: OVCAR-4
[58] = system: RPMI-8226

For `N#CC1(C#N)C2CCCCC23OC(=N)C1(C#N)C(c1ccco1)O3` (stereo not given), the GI50 [1] was 14.5 µM (inactive), the GI50 [2] was 21.9 µM (inactive) and the GI50 [3] was > 100 µM (inactive). For the same compound, the GI50 [4] was 28.5 µM (inactive), the GI50 [5] was 15.6 µM (inactive) and the GI50 [6] was 11.6 µM (inactive). For the same compound, the GI50 [7] was 10.5 µM (inactive), the GI50 [8] was 11.9 µM (inactive) and the GI50 [9] was 25.9 µM (inactive). The GI50 [10] was 25.8 µM (inactive), the GI50 [11] was 15.1 µM (inactive) and the GI50 [12] was 17.4 µM (inactive). The GI50 [13] was 9.23 µM, the GI50 [14] was 13.8 µM (inactive) and the GI50 [15] was 26.7 µM (inactive). For the same compound, the GI50 [16] was 30.8 µM (inactive), the GI50 [17] was 18.3 µM (inactive) and the GI50 [18] was 8.38 µM (inactive). For the same compound, the GI50 [19] was 33.8 µM (inactive), the GI50 [20] was 17.2 µM (inactive) and the GI50 [21] was 20.4 µM (inactive). The GI50 [22] was 21.9 µM (inactive), the GI50 [23] was 16.7 µM (inactive) and the GI50 [24] was 19.8 µM (inactive). For the same compound, the GI50 [25] was 17.4 µM (inactive), the GI50 [26] was 23 µM (inactive) and the GI50 [27] was 23.7 µM (inactive). The GI50 [28] was > 100 µM (inactive), the GI50 [29] was 26.1 µM (inactive) and the GI50 [30] was 25.8 µM (inactive). The GI50 [31] was 44.3 µM (inactive), the GI50 [32] was 16.1 µM (inactive) and the GI50 [33] was 24.9 µM (inactive). For the same compound, the GI50 [34] was 23.2 µM (inactive), the GI50 [35] was 23 µM (inactive) and the GI50 [36] was 21.7 µM (inactive). For the same compound, the GI50 [37] was 30.8 µM (inactive), the GI50 [38] was > 100 µM (inactive) and the GI50 [39] was 23.8 µM (inactive). For the same compound, the GI50 [40] was 15.6 µM (inactive), the GI50 [41] was 17.6 µM (inactive) and the GI50 [42] was 15.5 µM (inactive). For the same compound, the GI50 [43] was > 100 µM (inactive), the GI50 [44] was 14.8 µM (inactive) and the GI50 [45] was 31.6 µM (inactive). The GI50 [46] was 55.5 µM (inactive), the GI50 [47] was 7.76 µM (inactive) and the GI50 [48] was 17.6 µM (inactive). For the same compound, the GI50 [49] was 17.1 µM (inactive), the GI50 [50] was > 10 µM (inactive) and the GI50 [51] was 17.7 µM (inactive). The GI50 [52] was 16.6 µM (inactive) and the GI50 [53] was 30.3 µM (inactive).

With `N#Cc1c(Cl)c2cc([N+](=O)[O-])ccc2n2c1nc1ccccc12` the GI50 [1] was 2.01 µM (inactive), the GI50 [2] was 25.6 µM (inactive) and the GI50 [3] was 35.8 µM (inactive). The GI50 [4] was 4.29 µM (inactive), the GI50 [5] was 19.5 µM (inactive) and the GI50 [6] was 2.14 µM (inactive). For the same compound, the GI50 [7] was 0.57 µM (active), the GI50 [8] was 2.21 µM (inactive) and the GI50 [9] was 3.5 µM (inactive). The GI50 [10] was 15.8 µM (inactive), the GI50 [11] was 7.53 µM (inactive) and the GI50 [12] was 3.17 µM (inactive). For the same compound, the GI50 [13] was 0.933 µM, the GI50 [54] was 0.172 µM (active) and the GI50 [55] was 18.2 µM (inactive). The GI50 [14] was 2.77 µM (inactive), the GI50 [15] was 4.46 µM (inactive) and the GI50 [16] was 7.69 µM (inactive). For the same compound, the GI50 [18] was 1.85 µM (inactive), the GI50 [19] was 9.91 µM (inactive) and the GI50 [20] was 1.87 µM (inactive). For the same compound, the GI50 [21] was 1.99 µM (inactive), the GI50 [22] was 1.17 µM (inactive) and the GI50 [23] was 0.492 µM (active). The GI50 [24] was 2.35 µM (inactive), the GI50 [25] was 7.19 µM (inactive) and the GI50 [26] was 0.8 µM (active). For the same compound, the GI50 [27] was 6.85 µM (inactive), the GI50 [28] was 10.6 µM (inactive) and the GI50 [29] was 9.98 µM (inactive). The GI50 [30] was 14.6 µM (inactive), the GI50 [56] was 2.54 µM (inactive) and the GI50 [31] was 5.07 µM (inactive). The GI50 [32] was 6.76 µM (inactive), the GI50 [57] was 2.15 µM (inactive) and the GI50 [33] was 4.05 µM (inactive). For the same compound, the GI50 [34] was 3.21 µM (inactive), the GI50 [35] was 5.46 µM (inactive) and the GI50 [58] was 3.94 µM (inactive). For the same compound, the GI50 [36] was 2.38 µM (inactive), the GI50 [37] was 5.71 µM (inactive) and the GI50 [38] was 26.8 µM (inactive). The GI50 [39] was 2.15 µM (inactive), the GI50 [40] was 6.87 µM (inactive) and the GI50 [41] was 15.5 µM (inactive). The GI50 [42] was 22.6 µM (inactive), the GI50 [43] was 23.3 µM (inactive) and the GI50 [44] was 4.44 µM (inactive). The GI50 [45] was 13.6 µM (inactive), the GI50 [46] was 8.81 µM (inactive) and the GI50 [47] was 2.26 µM (inactive). For the same compound, the GI50 [48] was 1.79 µM (inactive), the GI50 [49] was 3.81 µM (inactive) and the GI50 [50] was 7.57 µM (inactive). For the same compound, the GI50 [51] was 20.6 µM (inactive), the GI50 [52] was 12 µM (inactive) and the GI50 [53] was 2.58 µM (inactive).
